Results as given in US9416141B2 (University of Washington through its Center for …, priority 2012, dated 2016).
Counter-ions that a name gives are not always drawn. Like-named read-outs stand apart in the source and are kept apart here.

System: hair cells
Experiment: Hair cell toxicity assay in zebrafish (neomycin-induced hair cell death, DASPEI staining of neuromasts)
Assay type: in vivo
Details: for Emax at 2.8 µM: maximum observed @ 2.8 μM test compound; for EC50: zebrafish larvae 5-7 dpf, 1 h pre-treatment, then 200 micromolar neomycin + test compound 30 min, read-out: HC50 (concentration that would produce 50% hair cell survival); for Emax at 25 µM: maximum observed @ 25 μM test compound; for Emax at 8.3 µM: maximum observed @ 8.3 μM test compound
Method in brief: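 Zebrafish larvae 5-7 dpf pre-treated 1 h with compound (0.010-25 μM), then 30 min with 200 μM neomycin plus compound. DASPEI stained 10 neuromasts per fish, scored 0-2 (total 0-20), normalised to vehicle controls as % hair cell survival. HC50 linearly interpolated if survival reached ≥50%; HCmax is maximum survival.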

[1] = Danio rerio, 200 micromolar neomycin, read-out: Max HC Protection (HCmax, % hair cell survival)

Compound | EC50 (Danio rerio) | Emax at 25 µM [1] | other results
CC1(C[N+]2(C)CCc3c(sc(NC(=O)Nc4ccc(Cl)cc4)c3C(N)=O)C2)CC1 (stereo not shown) [Example 196, 3-Carbamoyl-2-[3-(4-chlorophenyl)ureido]-6-methyl-6-[(1-methylcyclopropyl)methyl]-4,5,6,7-tetrahydrothieno[2,3-c]pyridin-6-ium trifluoroacetate] | < 1000 nM | – | Emax at 2.8 µM [1]: 85%
NC(=O)c1c(NC(=O)Nc2ccc(Cl)cc2)sc2c1CCN(CC13CC4CC(CC(C4)C1)C3)C2 [Example 49, 6-[(3r,5r,7r)-Adamantan-1-ylmethyl]-2-[3-(4-chlorophenyl)ureido]-4,5,6,7-tetrahydrothieno[2,3-c]pyridine-3-carboxamide hydrochloride] | 1000 to 10000 nM | – | Emax at 2.8 µM [1]: 64%
CC(C)(C)OC(=O)NCCCN1CCc2c(sc(NC(=O)Nc3ccc(C(=O)c4ccccc4)cc3)c2C(N)=O)C1 [Example 208, tert-Butyl N-[3-(2-{[(4-benzoylphenyl)carbamoyl]amino}-3-carbamoyl-4H,5H,6H,7H-thieno[2,3-c]pyridin-6-yl)propyl]carbamate] | 1000 to 10000 nM | – | Emax at 2.8 µM [1]: 56%
CCN1CCc2sc(NC(=O)Nc3ccc(Cl)cc3)c(C(N)=O)c2C1 [Example 116, 2-[3-(4-Chlorophenyl)ureido]-5-ethyl-4,5,6,7-tetrahydrothieno[3,2-c]pyridine-3-carboxamide hydrochloride] | 1000 to 10000 nM | 82% | –
C[N+]1(CCO)CCc2c(sc(NC(=O)Nc3ccc(Cl)cc3)c2C(N)=O)C1 (stereo not shown) [Example 144, 3-Carbamoyl-2-[3-(4-chlorophenyl)ureido]-6-(2-hydroxyethyl)-6-methyl-4,5,6,7-tetrahydrothieno[2,3-c]pyridin-6-ium iodide] | 1000 to 10000 nM | 78% | –
CON=C1CCc2c(sc(NC(=O)Nc3ccc(Cl)cc3)c2C(N)=O)C1 (single isomer, unassigned) [Example 121, 2-[3-(4-chlorophenyl)ureido]-6-(methoxyimino)-4,5,6,7-tetrahydrobenzo[b]thiophene-3-carboxamide] | – | – | Emax at 3 µM (Danio rerio, maximum observed @ 03 μM test compound, 200 micromolar neomycin, read-out: Max HC Protection (HCmax, % hair cell survival)): 6%
CC(C)(O)CN1CCc2c(sc(NC(=O)Nc3ccc(Cl)cc3)c2C(N)=O)C1 [Example 119, 2-[3-(4-chlorophenyl)ureido]-6-(2-hydroxy-2-methylpropyl)-4,5,6,7-tetrahydrothieno[2,3-c]pyridine-3-carboxamide] | 1000 to 10000 nM | 65% | –
CN1C2CCC1c1sc(NC(=O)Nc3ccc(Cl)cc3)c(C(N)=O)c1C2 (single isomer, unassigned; (+)) [Example 128, (+)-2-[3-(4-Chlorophenyl)ureido]-9-methyl-5,6,7,8-tetrahydro-4H-5,8-epiminocyclohepta[b]thiophene-3-carboxamide hydrochloride] | – | – | EC50 (hydrochloride): < 1000 nM
C[N+]1(CC2CCCC2)CCc2c(sc(NC(=O)Nc3ccc(Cl)cc3)c2C(N)=O)C1 (stereo not shown) [Example 153, 3-Carbamoyl-2-[3-(4-chlorophenyl)ureido]-6-(cyclopentylmethyl)-6-methyl-4,5,6,7-tetrahydrothieno[2,3-c]pyridin-6-ium iodide] | < 1000 nM | – | Emax at 8.3 µM [1]: 98%
CCN1CCc2c(sc(NC(=O)Nc3cccnc3)c2C(N)=O)C1 [Example 69, 6-Ethyl-2-[3-(pyridin-3-yl)ureido]-4,5,6,7-tetrahydrothieno[2,3-c]pyridine-3-carboxamide dihydrochloride] | – | 12% | –
CC(C)(C)OC(=O)NCCCN1CCc2c(sc(NC(=O)Nc3ccc4ccccc4c3)c2C(N)=O)C1 [Example 206, tert-Butyl N-[3-(3-carbamoyl-2-{[(naphthalen-2-yl)carbamoyl]amino}-4H,5H,6H,7H-thieno[2,3-c]pyridin-6-yl)propyl]carbamate] | 1000 to 10000 nM | – | Emax at 6.3 µM (Danio rerio, maximum observed @ 6.3 μM test compound, 200 micromolar neomycin, read-out: Max HC Protection (HCmax, % hair cell survival)): 88%
COC(=O)CCCN1CCc2c(sc(NC(=O)Nc3ccc(Cl)cc3)c2C(N)=O)C1 [Example 20, Methyl 4-{3-carbamoyl-2-[3-(4-chlorophenyl)ureido]-4,5-dihydrothieno[2,3-c]pyridin-6(7H)-yl}butanoate hydrochloride] | 1000 to 10000 nM | 65% | –
CC(C)[N+]1(C)CCc2c(sc(NC(=O)Nc3ccc(Cl)cc3)c2C(N)=O)C1 (stereo not shown) [Example 191, 3-Carbamoyl-2-[3-(4-chlorophenyl)ureido]-6-isopropyl-6-methyl-4,5,6,7-tetrahydrothieno[2,3-c]pyridin-6-ium iodide] | < 1000 nM | – | Emax at 8.3 µM [1]: 80%
CC(C)(C)OC(=O)C1CC([N+]2(C)CCc3c(sc(NC(=O)Nc4ccc(Cl)cc4)c3C(N)=O)C2)C1 (stereo not shown) [Example 163, 6-[3-(tert-Butoxycarbonyl)cyclobutyl]-3-carbamoyl-2-[3-(4-chlorophenyl)ureido]-6-methyl-4,5,6,7-tetrahydrothieno[2,3-c]pyridin-6-ium iodide] | < 1000 nM | – | Emax at 8.3 µM [1]: 88%
NC(=O)c1c(NC(=O)Nc2ccc(Cl)cc2)sc2c1CC1CCC2N1CC1CCC1 (racemic) [Example 132, (+/−)-2-[3-(4-Chlorophenyl)ureido]-9-(cyclobutylmethyl)-5,6,7,8-tetrahydro-4H-5,8-epiminocyclohepta[b]thiophene-3-carboxamide hydrochloride] | < 1000 nM | – | Emax at 2.8 µM [1]: 97%
C[N+]1(C)CCCC12CCc1c(sc(NC(=O)Nc3ccc(Cl)cc3)c1C(N)=O)C2 (racemic) [Example 186, (+/−)-3-Carbamoyl-2-[3-(4-chlorophenyl)ureido]-1′,1′-dimethyl-5,7-dihydro-4H-spiro(benzo[b]thiophene-6,2′-pyrrolidin)-1′-ium trifluoroacetate] | < 1000 nM | – | Emax at 2.8 µM [1]: 65%
NC(=O)c1c(NC(=O)Nc2ccc(Cl)cc2)sc2c1CCN(CCO)C2 [Example 60, 2-[3-(4-Chlorophenyl)ureido]-6-(2-hydroxyethyl)-4,5,6,7-tetrahydrothieno[2,3-c]pyridine-3-carboxamide hydrochloride] | 1000 to 10000 nM | 71% | –
C[N+]1(CC23CC4CC(CC(C4)C2)C3)CCc2c(sc(NC(=O)Nc3ccc(Cl)cc3)c2C(N)=O)C1 (stereo not shown) [Example 197, 6-[(3r,5r,7r)-Adamantan-1-ylmethyl]-3-carbamoyl-2-[3-(4-chlorophenyl)ureido]-6-methyl-4,5,6,7-tetrahydrothieno[2,3-c]pyridin-6-ium chloride] | < 1000 nM | – | Emax at 2.8 µM [1]: 93%
CCN1CCc2c(sc(NC(=O)Nc3ccc(Cl)cc3)c2C(=O)NC2COC2)C1 [Example 102, 2-[3-(4-Chlorophenyl)ureido]-6-ethyl-N-(oxetan-3-yl)-4,5,6,7-tetrahydrothieno[2,3-c]pyridine-3-carboxamide] | – | 22% | –
CCN1CCc2c(sc(NC(=O)Nc3ccc(Cl)cc3)c2C(=O)N2CCOCC2)C1 [Example 95, 1-(4-chlorophenyl)-3-[6-ethyl-3-(morpholine-4-carbonyl)-4,5,6,7-tetrahydrothieno[2,3-c]pyridin-2-yl]urea hydrochloride] | 1000 to 10000 nM | 78% | –
C[N+]1(CC2CCCCC2)CCc2c(sc(NC(=O)Nc3ccc(Cl)cc3)c2C(N)=O)C1 (stereo not shown) [Example 152, 3-Carbamoyl-2-[3-(4-chlorophenyl)ureido]-6-(cyclohexylmethyl)-6-methyl-4,5,6,7-tetrahydrothieno[2,3-c]pyridin-6-ium iodide] | < 1000 nM | – | Emax at 0.9 µM (Danio rerio, maximum observed @ 0.9 μM test compound, 200 micromolar neomycin, read-out: Max HC Protection (HCmax, % hair cell survival)): 78%
CCN1CCc2c(sc(NC(=O)Nc3ccc(Oc4ccccc4)cc3)c2C(N)=O)C1 [Example 225, 6-ethyl-2-{[(4-phenoxyphenyl)carbamoyl]amino}-4H,5H,6H,7H-thieno[2,3-c]pyridine-3-carboxamide] | 1000 to 10000 nM | 91% | –
CCN1CCc2c(sc(NC(=O)Nc3cccc(F)c3)c2C(N)=O)C1 [Example 71, 6-Ethyl-2-[3-(3-fluorophenyl)ureido]-4,5,6,7-tetrahydrothieno[2,3-c]pyridine-3-carboxamide hydrochloride] | – | 45% | –
C[N+]1(C)CCc2c(sc(NC(=O)Nc3ccc(Cl)cc3)c2C(N)=O)C1 [Example 162, 3-Carbamoyl-2-[3-(4-chlorophenyl)ureido]-6,6-dimethyl-4,5,6,7-tetrahydrothieno[2,3-c]pyridin-6-ium trifluoroacetate] | – | – | Emax at 2.8 µM [1]: 36%
CCN1CCc2c(sc(NC(=O)Nc3ccc(Cl)cc3)c2C#N)C1 [Example 87, 1-(4-Chlorophenyl)-3-(3-cyano-6-ethyl-4,5,6,7-tetrahydrothieno[2,3-c]pyridin-2-yl)urea] | – | 11% | –
CCN1C2CCC1c1sc(NC(=O)Nc3ccc(Cl)cc3)c(C(N)=O)c1C2 (racemic) [Example 133, (+/−)-2-[3-(4-Chlorophenyl)ureido]-9-ethyl-5,6,7,8-tetrahydro-4H-5,8-epiminocyclohepta[b]thiophene-3-carboxamide hydrochloride] | < 1000 nM | 76% | –
CC(C)(C)OC(=O)N1CCC(N2CCc3c(sc(NC(=O)Nc4ccc(Cl)cc4)c3C(N)=O)C2)C1 (stereo not shown) [Example 4, tert-Butyl 3-{3-carbamoyl-2-[3-(4-chlorophenyl)ureido]-4,5-dihydrothieno[2,3-c]pyridin-6(7H)-yl}pyrrolidine-1-carboxylate] | 1000 to 10000 nM | – | Emax at 8.3 µM [1]: 56%
CC(C)N1CCc2c(sc(NC(=O)Nc3ccc(Cl)cc3)c2C(N)=O)C1 [Example 2, 2-[3-(4-Chlorophenyl)ureido]-6-isopropyl-4,5,6,7-tetrahydrothieno[2,3-c]pyridine-3-carboxamide hydrochloride] | 1000 to 10000 nM | 84% | –
